Source: patent US9029389B2 (Institut Pasteur Korea, priority 2011, dated 2015)

What follows are molecules tested against T1, Human 5-lipoxygenase (Homo sapiens, UniProt P09917) (assay: Activity of compounds against 5-LO enzyme (LTB4 measurement and/or fluorescence method)). Conditions: 5-LO, single concentration of 10 uM in duplicate.
T1 construct: purchased Cayman 60402; host or cells: insect cells
T1 sequence (P09917 1-674): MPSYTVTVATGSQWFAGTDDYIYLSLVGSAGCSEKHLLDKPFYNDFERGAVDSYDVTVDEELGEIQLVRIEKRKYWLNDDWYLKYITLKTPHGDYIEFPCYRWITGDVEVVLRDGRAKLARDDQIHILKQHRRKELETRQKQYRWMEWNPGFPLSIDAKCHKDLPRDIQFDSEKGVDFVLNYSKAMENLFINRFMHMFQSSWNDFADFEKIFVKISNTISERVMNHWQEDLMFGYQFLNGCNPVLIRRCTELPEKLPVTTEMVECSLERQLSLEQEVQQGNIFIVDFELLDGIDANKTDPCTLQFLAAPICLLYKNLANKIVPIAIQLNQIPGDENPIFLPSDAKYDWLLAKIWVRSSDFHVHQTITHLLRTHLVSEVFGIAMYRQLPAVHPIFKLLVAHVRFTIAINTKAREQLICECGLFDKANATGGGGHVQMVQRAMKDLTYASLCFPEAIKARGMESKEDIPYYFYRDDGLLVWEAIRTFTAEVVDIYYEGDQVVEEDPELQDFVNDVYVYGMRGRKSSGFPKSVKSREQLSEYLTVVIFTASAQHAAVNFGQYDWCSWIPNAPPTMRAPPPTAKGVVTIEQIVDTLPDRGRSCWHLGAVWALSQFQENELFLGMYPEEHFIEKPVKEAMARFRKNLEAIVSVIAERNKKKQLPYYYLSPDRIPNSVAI
Type: biochemical
In short: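 Two read-outs: LTB4 measured by EIA and/or LC/MS/MS with LTB4-d4 standard after 15 min RT compound preincubation with insect-cell 5-LO and a 5 min 37 °C reaction on 3 uM arachidonic acid (0.1 mM ATP, pH 7.4). The room-temperature fluorescence format used 20 uM H2DCFDA, 100 uM ATP, 3 uM arachidonic acid, 5 min; IC50 from 6/11-point curves.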

Compound | inhibition at 10 µM [%]
CCc1nc2ccc(Cl)cn2c1C(=O)NCc1ccc(N2CCC(O)(c3ccccc3)CC2)cc1 [compound 328, 6-chloro-2-ethyl-N-(4-(4-hydroxy-4-phenylpiperidin-1-yl)benzyl)imidazo[1,2-a]pyridine-3-carboxamide] | < 40
CCc1nc2c(OC)cccn2c1C(=O)NCc1ccc(N2CCOCC2)cc1 [compound 262, 2-Ethyl-8-methoxy-N-(4-morpholinobenzyl)imidazo[1,2-a]pyridine-3-carboxamide] | < 40
Cc1nc2cccc(C)n2c1C(=O)NCc1ccccc1 [compound 34, N-Benzyl-2,5-dimethylimidazo[1,2-a]pyridine-3-carboxamide] | 40 to 69
CCOC(=O)C1CCN(c2ccc(CNC(=O)c3c(CC)nc4cc(Cl)ccn34)cc2)CC1 [compound 270, Ethyl 1-(4-((7-chloro-2-ethylimidazo[1,2-a]pyridine-3-carboxamido)methyl)phenyl)piperidine-4-carboxylate] | 40 to 69
Cc1ccc2nc(C)c(C(=O)NCc3ccccc3)n2c1 [compound 33, N-Benzyl-2,6-dimethylimidazo[1,2-a]pyridine-3-carboxamide] | < 40
O=C(NCc1ccccc1)c1c(C2CC2)nc2ccccn12 [compound 38, N-Benzyl-2-cyclopropylimidazo[1,2-a]pyridine-3-carboxamide] | < 40
CCc1nc2ccccn2c1C(=O)NCc1ccc(C(C)(C)C)cc1 [compound 49, N-(4-tert-Butylbenzyl)-2-ethylimidazo[1,2-a]pyridine-3-carboxamide] | < 40
CCc1nc2ccc(Cl)cn2c1C(=O)NCc1ccc2[nH]c(-c3ccc(OC(F)(F)F)cc3)nc2c1 [compound 185, 6-Chloro-2-ethyl-N-((2-(4-(trifluoromethoxy)phenyl)-1H-benzo[d]imidazol-5-yl)methyl)imidazo[1,2-a]pyridine-3-carboxamide] | 40 to 69
CCc1nc2c(-c3ccncc3)cccn2c1C(=O)NCc1ccc(N2CCOCC2)cc1 [compound 284, 2-Ethyl-N-(4-morpholinobenzyl)-8-(pyridin-4-yl)imidazo[1,2-a]pyridine-3-carboxamide] | < 40
Cc1nc2ccccn2c1C(=O)NCc1cccnc1 [compound 5, 2-Methyl-N-(pyridin-3-ylmethyl)imidazo[1,2-a]pyridine-3-carboxamide] | < 40
CCc1nc2ccc(F)cn2c1C(=O)NCc1ccc(N2CCOCC2)cc1 [compound 241, 2-Ethyl-6-fluoro-N-(4-morpholinobenzyl)imidazo[1,2-a]pyridine-3-carboxamide] | < 40
CCc1nc2cc(Cl)ccn2c1NC(=O)Cc1ccc(-c2ccccc2)cc1 [compound 116, 2-(Biphenyl-4-yl)-N-(7-chloro-2-ethylimidazo[1,2-a]pyridin-3-yl)acetamide] | 40 to 69
Cc1nc2ccccn2c1C(=O)NCCc1ccccc1 [compound 12, 2-Methyl-N-phenethylimidazo[1,2-a]pyridine-3-carboxamide] | < 40
CCc1nc2cc(Cl)ccn2c1C(=O)NCc1ccc(-n2cccc2)cc1 [compound 117, N-(4-(1H-Pyrrol-1-yl)benzyl)-7-chloro-2-ethylimidazo[1,2-a]pyridine-3-carboxamide] | < 40
CCc1nc2cc(Cl)ccn2c1C(=O)NCc1ccc(-c2ccc(OC(F)(F)F)cc2)cc1 [compound 112, 7-Chloro-2-ethyl-N-((4′-(trifluoromethoxy)biphenyl-4-yl)methyl)imidazo[1,2-a]pyridine-3-carboxamide] | 40 to 69
CCc1nc2cc(Cl)ccn2c1C(=O)NCc1ccc(-c2ccc(Cl)cc2)cc1 [compound 83, 7-Chloro-N-((4′-chlorobiphenyl-4-yl)methyl)-2-ethyl-2-ethlimidazo[1,2-a]pyridine-3-carboxamide] | 40 to 69
